Data from US20110059869A1, “Method for Increasing Enzymatic Reactivity” (RIKEN, priority 2008, published 2011).

Columns and labels:
HindIII = experiment: DNA fragment II HindIII cleavage reactions on bead and plate surfaces with added substances; format: biochemical; settings: 0.6 M sorbitol; beads and plate; not of the same degree as trehalose
Description: The effect of the presence of substances other than trehalose on enzymatic activity was examined for enzymatic reactions on the surface of a support. Sorbitol was employed as the added reagent. Trehalose was also added and a sorbitol+trehalose reaction system was examined (Scheme 7).
HindIII cleavage reactions were conducted on biotin-labeled DNA fragment II (Seq. ID No. 5, Scheme 4) on the surface of beads by adding trehalose, glucose, sorbitol, and betaine, and the 104 by DNA fragment released was detected. Paramagnetic streptavidin beads were washed with accessory 1× binding buffer, recovered with a magnetic stand to remove the supernatant, and suspended in the same buffer. […] The precipitate of DNA fragments thus obtained was dissolved in 1× TE (pH 7.5) and analyzed with Bioanalyzer DNA 1000 assay (Agilent Technologies).
Trehalose and sorbitol were added and a HindIII cleavage reaction was conducted on a horizontal plate surface on biotin-labeled DNA fragment II (Seq. ID No. 5, Scheme 4) and the 104 by DNA fragments that were released were detected. […] The precipitate of DNA fragments obtained was dissolved in 1× TE (pH 7.5) and analyzed with Bioanalyzer DNA 1000 assay (Agilent Technologies).

[1] = State of streptavidin bead reaction solution during enzymatic reaction; format: physicochemical; settings: 0.6 M additive; extended / three hours restriction enzyme reaction
Excerpt: Thus, with no nonuniformity in enzymatic activity, the various enzymatic reactions were promoted and the quantity of target DNA recovered increased.
This was attributed to characteristics such as the viscosity and diffusing effect of trehalose or sorbitol.

Compound: OC[C@@H](O)[C@@H](O)[C@H](O)[C@@H](O)CO [sorbitol, D(+) sorbitol]
- enzymatic activity (yield of DNA recovered) (HindIII): high enzymatic activity was exhibited on all reaction surfaces
- uniformity of beads in the reaction solution [1]: uniformity in the solution of beads was maintained
